Experimental data reported in patent publication US8513303B2, “Antimicrobial agent” (De Montfort University, priority 2007, dated 2013).

Experiments:
Format in all cases: cell-based
[1] = system: Bacillus subtilis subsp. spizizenii ATCC 6633 spore; assay: Testing for antimicrobial activity against spores (sporicidal suspension test)
Description: Spore suspensions were prepared based on the general principles of European quantitative suspension tests for evaluation of sporicidal activity (BS EN14347:2005: chemical disinfectants and antiseptics, basic sporicidal activity, test method and requirements (phase 1, step 1), London: British Standards Institute). Tryptone soya broth was seeded with spores from a previous batch and incubated at 37° C. to obtain an exponential growth phase culture. 10 mL of this culture was transferred into a Roux flask containing manganese-sulfate sporulation agar so that the inoculum came into contact with all of the surface of the agar. The Roux flasks were incubated at 37° C. for 2 days and for 21 days at 30° C., cultures were recovered, checked for sporulation and stored in water at 5° C. Sporicidal activity was then assessed using the method outlined previously (but with half the volume/weight of hydrogen peroxide, water, organism and catalyst) using 5 to 7.5% w/v hydrogen peroxide (see testing antimicrobial activity section). After neutralisation, a 1 mL sample was added to 12 to 15 mL of melted tryptone soya agar cooled to 45° C. Petri dishes were incubated for a minimum of 4 days and a maximum of 7 days at 37° C. and the log10 reduction in bacterial spore numbers calculated.

[2] = system: Escherichia coli ATCC 10536; assay: Antimicrobial activity of PAN catalyst during reuse; conditions: 0.2% w/v H2O2, no air
Description: (§1) PAN catalyst was assessed for antimicrobial activity at first use, 48 hours after first use, 48 hours after second use and six months after first use using the same experimental conditions as described previously (see testing antimicrobial activity section).

[3] = system: Staphylococcus aureus ATCC 6538; assay: as above; conditions: room temperature, 1% w/v H2O2, no air
Description: as §1

How did the “Mean log10 reduction in CFU/ml” value ([1]; 5% w/v H2O2, no air, 10 min) turn out when `OO` [Example H2O2, hydrogen peroxide] was run?
The value was 1.02 (0.03) log10 CFU/ml.

And the “Mean log10 reduction in CFU/ml” value ([1]; 5% w/v H2O2, no air, 30 min)?
The value was 1.26 (0.12) log10 CFU/ml.

What about the “Mean log10 reduction in CFU/ml” value ([1]; 5% w/v H2O2, no air, 60 min) of the same compound?
The value was 1.90 (0.09) log10 CFU/ml.

What about the “Mean log10 reduction in CFU/ml” value ([1]; 5% w/v H2O2, no air, 120 min) of the same compound?
Its value is 3.45 (0.27) log10 CFU/ml.

And the “Mean log10 reduction in CFU/ml” value ([1]; 5% w/v H2O2, no air, 120 min, listed as hydrogen peroxide)?
The value was 3.45 log10 CFU/ml.

What about the “Mean log10 reduction in CFU/ml” value ([1]; 7.5% w/v H2O2, no air, 10 min) of the same compound?
The value was 0.04 (0.11) log10 CFU/ml.

And the “Mean log10 reduction in CFU/ml” value ([1]; 7.5% w/v H2O2, no air, 30 min)?
Its value is 0.19 (0.08) log10 CFU/ml.

And the “Mean log10 reduction in CFU/ml” value ([1]; 7.5% w/v H2O2, no air, 60 min)?
The value was 0.95 (0.01) log10 CFU/ml.

And the “Mean log10 reduction in CFU/ml” value ([1]; 7.5% w/v H2O2, no air, 120 min)?
The value was 4.22 (0.71) log10 CFU/ml.

What about the “Mean log10 reduction in CFU/ml” value ([1]; 7.5% w/v H2O2, no air, 120 min, listed as hydrogen peroxide) of the same compound?
The value was 4.22 log10 CFU/ml.

And the “Mean log10 reduction in CFU/ml” value ([2]; 35° C., 10 min)?
Its value is 2.46 log10 CFU/ml.

And the “Mean log10 reduction in CFU/ml” value ([2]; 35° C., 20 min)?
Its value is 3.77 log10 CFU/ml.

What about the “Mean log10 reduction in CFU/ml” value ([2]; 35° C., 30 min) of the same compound?
The value was “≧5.30 log10 CFU/ml”.

And the “Mean log10 reduction in CFU/ml” value ([2]; 35° C., 30 min, listed as hydrogen peroxide)?
Its value is “greater than or equal to 5.30 log10 CFU/ml”.

What about the “Mean log10 reduction in CFU/ml” value ([2]; 35° C., 40 min) of the same compound?
Its value is >5.50 log10 CFU/ml.

And the “Mean log10 reduction in CFU/ml” value ([2]; 35° C., 50 min)?
The value was >5.50 log10 CFU/ml.

And the “Mean log10 reduction in CFU/ml” value ([2]; 35° C., 60 min)?
The value was >5.50 log10 CFU/ml.

And the “Mean log10 reduction in CFU/ml” value ([2]; room temperature, 10 min)?
Its value is 1.01 log10 CFU/ml.

And the “Mean log10 reduction in CFU/ml” value ([2]; room temperature, 20 min)?
The value was 2.08 log10 CFU/ml.

What about the “Mean log10 reduction in CFU/ml” value ([2]; room temperature, 30 min) of the same compound?
Its value is 3.28 log10 CFU/ml.

And the “Mean log10 reduction in CFU/ml” value ([2]; room temperature, 40 min)?
Its value is 4.00 log10 CFU/ml.

What about the “Mean log10 reduction in CFU/ml” value ([2]; room temperature, 50 min) of the same compound?
Its value is 5.17 log10 CFU/ml.

What about the “Mean log10 reduction in CFU/ml” value ([2]; room temperature, 60 min) of the same compound?
Its value is >5.50 log10 CFU/ml.

And the “Mean log10 reduction in CFU/ml” value ([3]; 10 min)?
The value was 0.54 log10 CFU/ml.

What about the “Mean log10 reduction in CFU/ml” value ([3]; 20 min) of the same compound?
The value was 1.18 log10 CFU/ml.

And the “Mean log10 reduction in CFU/ml” value ([3]; 30 min)?
The value was 2.68 log10 CFU/ml.

And the “Mean log10 reduction in CFU/ml” value ([3]; 40 min)?
Its value is 3.56 log10 CFU/ml.

And the “Mean log10 reduction in CFU/ml” value ([3]; 50 min)?
The value was 4.62 log10 CFU/ml.

What about the “Mean log10 reduction in CFU/ml” value ([3]; 60 min) of the same compound?
The value was 5.08 log10 CFU/ml.
